The record followed here is US12606773B2, “Ionizable cationic lipids” (Akagera Medicines, Inc., priority 2020, dated 2026).

A short description of series [1]: mRNA encapsulation efficiency by Ribogreen fluorescent binding dye. The format is physicochemical. Conditions: same LNPs; for Encapsulation Efficiency (%): Table 4; for % Encapsulation ± SD: Table 3. Here is the method:
A. mRNA Concentration and Relative Encapsulation Efficiency Determination by Fluorescent Binding Dye
• Materials: Ribogreen reagent (Thermo #11491), 3×96-well plates with lids, PBS, dissociation buffer (PBS with 10% DMSO and 1% (wt/wt) Zwittergent 3-14 (Sigma-Aldrich #693017), mRNA, general pipette tips & repeater pipette tips. • 1. 5 mL of 2 μg/mL mRNA stock were prepared in DPBS or PBS • 2. Diluted standards were prepared as follows in single wells in a 96-well plate (Plate A);
• 3. Using different wells in Plate A, samples were diluted to be within the standard curve, you'll need one well per sample. For example, if the approximate mRNA concentration should be ˜30 ug/mL in the sample, a 20× dilution was performed (Dilution Factor). (20 uL sample added to 380 μL PBS in a well). No lid was used on plate A. Samples were mixed by gentle pipetting up & down.
• 4. Two more plates, plates B & C were used. Using a multichannel pipettor, 60 μL of each standard 2 were pipetted into wells each (duplicate), and sample into 3 wells each (triplicate)
(§1) • 5. The number of wells used on each plate was counted and 4 was added to this number. For plate B, PBS was prepared with Ribogreen diluted 1:100. For example, for 40 wells, 44 was used as the number. 44×60 μL=2.64 mL Ribogreen solution needed, so that would be 2.61 mL PBS with 26.4 μL Ribogreen. • 6. For plate C, 2.61 mL Dissociation buffer and 26.4 uL Ribogreen was pipetted. • 7. Using a repeater pipette set for 60 μL, PBS+RiboGreen was added to each well on plate B and 60 μL Dissociation Buffer+Ribogreen to plate C. Both plates B and C were mixed on an orbital mixer (120 rpm) for 1 min. Plate B was placed in the dark for 15 min. Plate C was incubated at 37° C. in the dark for 10 min, followed by 5 min at RT. • 8. Both plates were read one after the other, using Ex. 465, Em. 530 nm • 9. Using the standard curve, the slope and intercept were calculated and by extrapolation the mRNA concentrations of the samples on plate B & C were calculated (average and std.dev) • 10. Percent encapsulation efficiency (% EE) by [mRNA] plate B/[mRNA] plate C×100 was calculated • 11. Total [mRNA] by taking [mRNA] plate C×dilution factor was calculated. B. LNP Particle Size • 1. […] C. LNP Zeta Potential • 1.

The nature of series [2]: LNP particle size and polydispersity (ZetaSizer). Conditions: for Particle Size (nm): mCherry mRNA LNP, 50 mol % ICL, N/P 5, DSPC 10, cholesterol 38.5, PEG-DMG 1.5 mol %; for Particle Size (nm) Post-Freeze/Thaw / Polydispersity Index PDI: same LNPs; for Particle Size (nm) Post-Freeze/Thaw: Table 4, post freeze/thaw. The format is physicochemical. Here is the method:
as §1

A short description of series [3]: LNP zeta potential (ZetaSizer Pro). Conditions: same LNPs; for Zeta Potential mV, pH 5: Table 4, pH 5; for Zeta Potential mV, pH 7: Table 4, pH 7. The format is physicochemical.
The nature of series [4]: Accelerated oxidation with H2O2/Fe(III)Cl, main lipid peak by UHPLC-CAD. Type of series: physicochemical. Conditions: for % of parent lipid peak at time 0, 24 h / % of parent lipid peak at time 0, 48 h / % of parent lipid peak at time 0, 72 h: 1% H2O2, 100 μM Fe(III)Cl, 37° C.; for stability under accelerated oxidation with hydrogen peroxide: compared to counterparts with a single methylene separating the two olefins. How it is done: Individual lipid stocks (10 mM) were prepared in ethanol and stored at −20° C. […] Liposomal formulations based on AKG-UO-1 and 0-11769 ionizable cationic lipids (Table 5) were prepared by combining lipid mixtures of desired composition in 1 mL ethanol with 3 mL 6.25 mM sodium acetate, pH 5.0 at 6 mL/min on a NanoAssemblr (Precision Nanosystems). 3.6 mL of the mixture was retained, while the initial 0.35 mL of the mixture and final 0.05 mL were discarded. Ethanol was removed by buffer exchange into PBS, pH 7.4 by concentrating each liposome preparation using an Aminon-Ultra 4 centrifugal concentrator at 500 g for 10 min at 4° C. and diluting back to the original volume with PBS. This cycle was repeated multiple times until the ethanol concentration was <1%. Finally, liposomes were sterile filtered through 0.2 μm PES (Nalgene) syringe filters and size measured by a ZetaSizer (Malvern).
Aliquots of the liposomal formulations were stored at −80° C. and thawed before the experiment. A combined stock in water of 10% H2O2 (Sigma-Aldrich, cat #H1009) and 1 mM of Fe(III)Cl (Sigma-Aldrich, cat #372870) was freshly prepared prior to the treatment. To make 1% final concentration of H2O2 and 100 μM Fe(III)Cl, 10 μl of 10% H2O2/1 mM Fe(III)Cl stock was added to 90 μl of both liposomal formulations and individual lipids The liposomes and individual lipids were incubated with H2O2/Fe(III)Cl at 37° C. and then 5 μl from each sample was taken at different time points (0, 3, 24, 48 and 72 hours) and dissolved in 90 μl of MeOH for HPLC analysis. Degradation of the main lipid peak was analyzed using Thermo Scientific Vanquish Flex UHPLC occupied with Charged Aerosol Detector (CAD) and Thermo Scientific Accucore™ C18+ UHPLC column (L=50 mm, D=2.1 mm, Particle Size=1.5 μm).
The data are presented as a percentage of the main lipid peak measured at different time points relative to the lipid peak measured at time zero.

Series [5] deals with MutuDC1940 cells. As to the kind of experiment: Transfection efficiency of mCherry mRNA LNPs in murine dendritic cells. Type of series: cell-based. Conditions: LNPs 1 μg/mL, 24h. Here is the method: A. Cell Propagation, Transfection, Harvesting and Staining Protocol
• 1. MutuDC1940 cells (ABM) were grown according to supplier's instructions in T75 flasks.
When required, they were plated at 180,000 cells/well into 24-well plate one day prior to transfection. • 2. LNPs were added in triplicate to each well at 1 μg/mL in 1 mL media and after 24h the cells were washed once with DPBS (VWR 02-0119-1000). • 3. 0.2 mL of DPBS (plus 5 mM EDTA, pH 7.4) was then added to facilitate detachment. • 4. The cells were placed at 37° C. for 3 min, until detached. • 5. 0.5 ml DPBS added to each well and the liquid transferred to a flow cytometry tube (Falcon 5 mL #352054) • 6. The tube was centrifuged at 1100 rpm for 3-5 min and the liquid poured off • 7. 100 μL of Zombie Violet (Biolegend) (diluted 1:500 in PBS) was added to each tube • 8. The tubes were gently tapped to resuspend cells and placed in the dark for 15 min at RT • 9. To the cells 0.5 mL of (paraformaldehyde 4% in PBS:DPBS 1:1) was added and the cells flicked gently to resuspend and put on ice for 30 min. Another 2 ml PBS was added. • 10. The cells were pelleted as above and resuspended in 0.5 mL DPBS with 5% BSA and placed in the fridge until needed. B. Cell Analysis • 1. Cells suspensions were analyzed by an Attune NxT flow cytometer using the VL1 and YL2 for live/dead and mCherry fluorescence signals respectively. Gating analysis was performed on FloJo software.

In the case of `CCCCCCCC/C=C\CCCCCCCC(=O)OC[C@H](CCN(C)C)OC(=O)CCCCCCC/C=C\CCCCCCCC` [AKG-DM2-OA], the “Encapsulation Efficiency (%)” value in series [1] came to 64.9 ± 3.4%. The “Particle Size (nm)” value in series [2] (Table 4) came to 77.6 nm. Moreover, in series [2], the “Particle Size (nm) Post-Freeze/Thaw” value was 111.5 nm. In addition, in series [3], the “Zeta Potential mV, pH 5” value is given as 19.1 mV and the “Zeta Potential mV, pH 7” value worked out at 2.2 mV.
Taken in the same sequence, the figures for `CCCCC/C=C\CCCC/C=C\CCCCC(=O)OC[C@H](CCN(CC)CC)OC(=O)CCCC/C=C\CCCC/C=C\CCCCC` [AKG-UO1A, (S)-4-(diethylamino)butane-1,2-diyl (6Z,6′Z,12Z,12′Z)-bis(octadeca-6,12-dienoate)] were 77.5 ± 0.9%, 84.4 nm, 103.2 nm, 28.0 mV and −0.9 mV.
On to `CCCCC/C=C\C/C=C\CCCCCCCC(=O)OC[C@H](CCN(C)C)OC(=O)CCCCCCC/C=C\C/C=C\CCCCC` [Compound O-11769, reference compound], for which the “Encapsulation Efficiency (%)” value in series [1] turned out to be 87.5 ± 2.7%. Also, the “Particle Size (nm)” value in series [2] (Table 4) is listed as 83.0 nm. For the same compound, the “Particle Size (nm) Post-Freeze/Thaw” value in series [2] was determined as 89.6 nm. In addition, in series [3], the “Zeta Potential mV, pH 5” value turned out to be 17.1 mV and the “Zeta Potential mV, pH 7” value was found to be 4.1 mV. Moreover, the “degradation after 48 hours of incubation with hydrogen peroxide” value (from here on “degradation after 48 hours of incubation”) in series [4] is given as “fully degraded”. In series [4] (ICL lipid suspensions), the “% of parent lipid peak at time 0, 24 h” value came out at 31 ± 0.9%; the “% of parent lipid peak at time 0, 48 h” value amounted to 1 ± 0.2%; the “% of parent lipid peak at time 0, 72 h” value is on record as 0.3 ± 0.1%. In addition, the “% of parent lipid peak at time 0, 72 h” value in series [4] (Liposome preparations) came out at 3.9±0.06%.
In the case of `CCCCCCCC/C=C\CCCCCCCC(=O)OC[C@H](CN(C)C)OC(=O)CCCCCCC/C=C\CCCCCCCC` [DODAP, reference compound], the “Encapsulation Efficiency (%)” value in series [1] amounted to 83.4 ± 7.7%. Besides, the “Particle Size (nm)” value in series [2] (Table 4) turned out to be 69.8 nm. Further, the “Particle Size (nm) Post-Freeze/Thaw” value in series [2] turned out to be 68.2 nm. In addition, in series [3], the “Zeta Potential mV, pH 5” value was found to be 10.2 mV and the “Zeta Potential mV, pH 7” value was −0.7 mV.
For `CCCCC/C=C\C/C=C\CCCCCCCCC1(CCCCCCCC/C=C\C/C=C\CCCCC)OCC(CCN(C)C)O1` (centres unmarked) [KC2, reference compound], in series [1], the “% Encapsulation ± SD” value amounted to 68.2 ± 3.7%. Besides, in series [2] (Table 3), the “Particle Size (nm)” value came out at 93.7 nm and the “Polydispersity Index PDI” value is on record as 0.01. In series [4], the “degradation after 48 hours of incubation” value is recorded as “fully degraded”. Besides, the “% of parent lipid peak at time 0, 72 h” value in series [4] (ICL lipid suspensions) stood at 0 ± 0.0%.
On to `CCCCC/C=C\CCCC/C=C\CCCCCC1(CCCCC/C=C\CCCC/C=C\CCCCC)OC[C@H](CCN(C)C)O1` [KC2-01, 2-((S)-2,2-di((6Z,12Z)-octadeca-6,12-dien-1-yl)-1,3-dioxolan-4-yl)-N,N-dimethylethan-1-amine], for which the “% Encapsulation ± SD” value in series [1] was 88.9 ± 1.6%. Further, the “fold higher mCherry expression than KC2” value in series [5] (relative to KC2 LNP) stood at 4.4 fold. In addition, in series [2] (Table 3), the “Particle Size (nm)” value was 70.7 nm and the “Polydispersity Index PDI” value turned out to be 0.06. For the same compound, the “stability under accelerated oxidation with hydrogen peroxide” value (shortened to “stability under accelerated oxidation”) in series [4] is on record as “dramatically superior stability”.
`CCCCC/C=C\C/C=C\CCCCCCCCC1(CCCCCCCC/C=C\C/C=C\CCCCC)OCC(CCCN(C)C)O1` (centres unmarked) [KC3, reference compound]: the “% Encapsulation ± SD” value in series [1] worked out at 87.0 ± 2.3%. In series [2] (Table 3), the “Particle Size (nm)” value came to 101.5 nm and the “Polydispersity Index PDI” value stood at 0.23. For the same compound, in series [4], the “degradation after 48 hours of incubation” value was “fully degraded”. In addition, in series [4] (ICL lipid suspensions), the “% of parent lipid peak at time 0, 72 h” value was found to be 0 ± 0.0%.
Take `CCCCC/C=C\CCCC/C=C\CCCCCC1(CCCCC/C=C\CCCC/C=C\CCCCC)OC[C@H](CCCN(C)C)O1` [KC3-01, 3-((S)-2,2-di((6Z,12Z)-octadeca-6,12-dien-1-yl)-1,3-dioxolan-4-yl)-N,N-dimethylpropan-1-amine]: the “% Encapsulation ± SD” value in series [1] worked out at 88.9 ± 2.7%. The “fold higher mCherry expression than KC3” value in series [5] (relative to KC3 LNP) is reported as 3.4 fold. In series [2] (Table 3), the “Particle Size (nm)” value came out at 91.6 nm and the “Polydispersity Index PDI” value stood at 0.03. Also, in series [4], the “stability under accelerated oxidation” value was “dramatically superior stability”.
In the case of `CCCCC/C=C\CCCC/C=C\CCCCC(=O)OC[C@H](CCN(C)C)OC(=O)CCCC/C=C\CCCC/C=C\CCCCC` [UO-1, (S)-4-(dimethylamino)butane-1,2-diyl (6Z,6′Z,12Z,12′Z)-bis(octadeca-6,12-dienoate)], the “Encapsulation Efficiency (%)” value in series [1] is recorded as 75.4 ± 2.2%. Also, the “fold higher mCherry expression than LNPs incorporating 0-11769” value in series [5] (relative to 0-11769 LNP) is 4.2 fold. Besides, in series [2] (Table 4), the “Particle Size (nm)” value worked out at 98.0 nm. Further, in series [2], the “Particle Size (nm) Post-Freeze/Thaw” value was found to be 122.6 nm. In series [3], the “Zeta Potential mV, pH 5” value stood at 21.9 mV and the “Zeta Potential mV, pH 7” value was 2.3 mV. In series [4] (ICL lipid suspensions), the “% of parent lipid peak at time 0, 24 h” value came out at 78 ± 0.6%; the “% of parent lipid peak at time 0, 48 h” value is 74 ± 0.1%; the “% of parent lipid peak at time 0, 72 h” value is 65 ± 2.5%. Moreover, in series [4] (Liposome preparations), the “% of parent lipid peak at time 0, 72 h” value was determined as 73±0.05%. Moreover, the “stability under accelerated oxidation” value in series [4] is reported as “dramatically superior stability”.
